# Like-named read-outs stand apart in the source and are kept apart here.
# Experiments:
# [1] = Single-blind, three-phase crossover study of single oral doses: blood analyses of metabolic, hormonal and electrolyte parameters in 8 normal male subjects; assay type: in vivo, human; conditions: for Free fatty acids, mean / Angiotensin I, mean / Renin, mean / C-peptide, mean / Potassium, mean / Uric acid, mean / Aldosterone, mean / Insulin, mean / Urea, mean / VLDL Cholesterol, mean / Norepinephrine, mean / HDL Cholesterol, mean / Glucose, mean / Triglycerides, mean / LDL Cholesterol, mean / Total cholesterol, mean / Fibrinogen, mean: 8 normal subjects; for Free fatty acids, mean: 0 h: PZG 0.47, PZA 0.51; for Angiotensin I, mean: 0 h: PZG 0.84, PZA 0.66; for Renin, mean: 0 h: PZG 1.0, PZA 1.5; for C-peptide, mean: 0 h: PZG 1.1, PZA 1.2; for Potassium, mean: 0 h: PZG 4.2, PZA 4.0; for Uric acid, mean: 0 h: PZG 6.0, PZA 5.6; for Aldosterone, mean: 0 h: PZG 8.6, PZA 13.6; for Insulin, mean: 0 h: PZG 8.8, PZA 5.4; for Urea, mean: 0 h: PZG 17, PZA 17; for VLDL Cholesterol, mean: 0 h: PZG 20, PZA 17; for Norepinephrine, mean: 0 h: PZG 37, PZA 75; for HDL Cholesterol, mean: 0 h: PZG 41, PZA 46; for Glucose, mean: 0 h: PZG 87, PZA 84; for Triglycerides, mean: 0 h: PZG 101, PZA 86; for LDL Cholesterol, mean: 0 h: PZG 107, PZA 104; for Total cholesterol, mean: 0 h: PZG 168, PZA 167; for Fibrinogen, mean: 0 h: PZG 266, PZA 293
# Description: A three-phase study, where single oral doses of placebo, followed in one week by 900 mg of pyrazinoylguanidine (PZG), followed in three weeks by 300 mg of pyrazinoic acid (PZA), involving normal male subjects, was carried out to compare and contrast metabolic effects of single doses of PZG and PZA. A purpose of the study was to determine whether the metalbolic effects observed after 3 and also 21 days of PZG administration in patients with renal disease or with diabetes also occurred after a single oral dose. […]
# (§1) Eight male nonsmoking subjects aged 24-32 participated. They were normal by history, physical exam and routine laboratory analysis of blood and urine.
# (§2) This was a single-blind, three-phase crossover study beginning after a 10-hour fast at 8 a.m., designated time 0 (control), when the first venipuncture occurred. In phase I, three capsules of lactose were given orally, followed by venipunctures 2 and 4 h later. In phase II, 1 week later, after a control blood specimen drawn at 8 a.m., PZG (900 mg) was given orally and blood specimens taken 2 and 4 h thereafter. In phase III, 3 weeks later, after a control blood specimen drawn at 8 a.m., PZA (300 mg) was given orally and blood specimens taken 2 and 4 h later.
# (§3) Each phase consisted of taking three capsules, each containing 300 mg. In phase I, all three capsules were of lactose; in phase II, all three were PZG; and in phase III, two capsules were lactose and one PZA. All capsules appeared indistinguishable and were given to each subject who swallowed them with water in the presence of an investigator.
# (§4) Once obtained, blood specimens were immediately spun. Refrigerated serum or plasma was analyzed within 24 h for glucose, insulin, electrolytes, blood urea nitrogen, creatinine, liver function tests, triglycerides, total cholesterol, high-density lipoprotein (HDL) cholesterol, low-density lipoprotein (LDL) cholesterol, very-low-density lipoprotein (VLDL) cholesterol, free fatty acids, and fibrinogen.
# Repeated measures of analysis of variance were used to compare each subject's placebo, PZG and PZA phase. Two-tailed Student t-tests were performed between groups. All results are reported as means ±SD. Statistical significance was considered when p<0.05. The results are illustrated in Tables 1-4.
# [2] = Serum concentration of PZG or PZA after single oral dose in the crossover study; assay type: in vivo; conditions: human, 300 mg
# Description: as §1, §2, §3, §4
# [3] = in vivo; cited from earlier work
# [4] = test system: cutaneous vasomotor reaction of blush area; assay: Exploratory (pilot) study: serum concentrations and cutaneous vasomotor reaction after different oral PZA doses in two subjects; assay type: in vivo, human
# Description: (§5) Comparisons of mean serum or plasma concentrations ±SD during placebo, PZG and PZA phases are presented in Table 1 for glucose, insulin, C-peptide, free fatty acids and norepinephrine. Comparisons of mean serum or plasma concentrations ±SD during these three phases are presented in Table 2 for triglycerides, VLDL, LDL, HDL, total cholesterol, fibrinogen and serum PZG and PZA concentrations. Note the close agreement of serum PZG and PZA concentrations at 2 h and also at 4 h after their administration. Table 3 compares mean serum or plasma concentrations ±SD of renin, angiotensin I, adlosterone, potassium, urea and uric acid during the three phases of the study. […] In an earlier pilot experiment to determine serum PZA concentrations following different PZA doses, a first subject ([…]) after a single oral dose of 300 mg PZA developed unexpectedly a typical cutaneous vasomotor reaction of their blush area which included flushed, warm skin of face, neck and shoulders with a mild rash for about 90 min. […] They described the reaction variously as warm redness or flushed head and neck, rash and itching (Table 4). These reactions, which were graded from 6 (most severe) to 0 (not observed), lasted from 30 min in 3 subjects to 4 h in 1 subject. […] No significant correlation occurred between score of reaction (effect+duration) and PZA peak blood concentration among the subjects (r=0.281) (Table 4).
# (§6) ^1 Score = warm + redness (flush) + rash + itching + duration. Duration
# (§7) as 0.5 h, 1, 2, 4 h (reaction and duration as noted).
# [5] = as above; assay type: in vivo, human; conditions: human, serum, po, exploratory study; for concentration at 1 h: read-out: Serum PZG, 1 h; for concentration at 2 h: read-out: Serum PZG, 2 h
# Description: as §5, §6, §7
# [6] = test system: cutaneous vasomotor reaction of blush area; assay: Cutaneous vasomotor response (and tolerability) after a single oral dose in 8 male volunteers; assay type: in vivo, human; set-up: key to Cutaneous vasomotor response, Score (0-6), Mean: graded 0 = not observed to 6 = most severe reaction
# Description: as §1, §2, §5, §6, §7
# [7] = 2 h after single oral dose (PZG 900 mg, PZA 300 mg)
# [8] = 4 h after single oral dose (PZG 900 mg, PZA 300 mg)
smiles,measurement,setting,value
"O=C(O)c1cnccn1 [PZA, pyrazinoic acid]","effect on mean values for serum glucose, insulin, C-peptide, triglycerides and free fatty acids","[1]; 0, 2 and 4 hours after administration",decreased
same,"Free fatty acids, mean",[1]; [7],0.10 meq/l
same,"Angiotensin I, mean",[1]; [7],0.75 ng/ml per h
same,"Renin, mean",[1]; [7],1.7 ng/ml per h
same,"C-peptide, mean",[1]; [7],1.0 ng/mL
same,"Potassium, mean",[1]; [7],4.6 meg/l
same,"Uric acid, mean",[1]; [7],6.3 mg/dL
same,"Aldosterone, mean",[1]; [7],12.3 ng/dL
same,"Insulin, mean",[1]; [7],3.7 μlU/ml
same,"Urea, mean",[1]; [7],17 mg/dL
same,"VLDL Cholesterol, mean",[1]; [7],15 mg/dL
same,"Norepinephrine, mean",[1]; [7],61 pg/mL
same,"HDL Cholesterol, mean",[1]; [7],41 mg/dL
same,"Glucose, mean",[1]; [7],85 mg/dL
same,"Triglycerides, mean",[1]; [7],77 mg/dL
same,"LDL Cholesterol, mean",[1]; [7],126 mg/dL
same,"Total cholesterol, mean",[1]; [7],179 mg/dL
same,"Fibrinogen, mean",[1]; [7],278 mg/dL
same,"Free fatty acids, mean",[1]; [8],0.09 meq/l
same,"Angiotensin I, mean",[1]; [8],0.73 ng/ml per h
same,"Renin, mean",[1]; [8],2.1 ng/ml per h
same,"C-peptide, mean",[1]; [8],0.7 ng/mL
same,"Potassium, mean",[1]; [8],4.3 meg/l
same,"Uric acid, mean",[1]; [8],6.2 mg/dL
same,"Aldosterone, mean",[1]; [8],12.5 ng/dL
same,"Insulin, mean",[1]; [8],3.7 μlU/ml
same,"Urea, mean",[1]; [8],16 mg/dL
same,"VLDL Cholesterol, mean",[1]; [8],14 mg/dL
same,"Norepinephrine, mean",[1]; [8],67 pg/mL
same,"HDL Cholesterol, mean",[1]; [8],45 mg/dL
same,"Glucose, mean",[1]; [8],80 mg/dL
same,"Triglycerides, mean",[1]; [8],69 mg/dL
same,"LDL Cholesterol, mean",[1]; [8],109 mg/dL
same,"Total cholesterol, mean",[1]; [8],168 mg/dL
same,"Fibrinogen, mean",[1]; [8],278 mg/dL
same,effect on plasma concentrations of nonesterified fatty acids,[1]; PZA (Table 1),reduce
same,"effect on insulin, C-peptide, free fatty acids and triglyceride serum concentrations",[1]; at equivalent plasma concentrations of PZG and PZA,reduced
same,"effect on LDL, HDL and total cholesterol","[1]; single oral dose, within 4 h",not altered systematically
same,effect on potassium blood concentrations,"[1]; single oral dose, within 4 h",not changed
same,effect on uric acid plasma concentration,"[1]; single oral dose, within 4 h",increased
same,effect on very-low-density lipoprotein (VLDL),"[1]; single oral dose, within 4 h",decreased
same,effect on plasma norepinephrine,"[1]; single oral dose, not statistically significant",did not elevate
same,concentration at 2 h,"[2]; 2 h after single oral dose (PZG 900 mg, PZA 300 mg), 8 normal subjects, read-out: Serum concentration of PZG or PZA, mean",5000 ng/mL
same,concentration at 4 h,"[2]; 4 h after single oral dose (PZG 900 mg, PZA 300 mg), 8 normal subjects",3000 ng/mL
same,concentration at 2 h,"[2]; single 300-mg dose of PZA, individual subjects one, read-out: PZA 2-hour serum conc",5600 ng/mL
same,concentration at 2 h,"[2]; single 300-mg dose of PZA, mean of 8 male volunteers, read-out: PZA 2-hour serum conc, Mean",4960 ng/mL
same,effect on serum triglycerides,[3],lower serum triglycerides
same,effect on uric acid blood concentrations,[3],increase uric acid blood concentrations
same,"Cutaneous vasomotor response, Score (0-6), exploratory study","[4]; subject two, single oral dose 600 mg",0
same,cutaneous vasomotor reaction,"[4]; subject two, single oral dose of 600 mg PZA",no cutaneous vasomotor reaction
same,"Cutaneous vasomotor response, Score (0-6), exploratory study","[4]; subject, single oral dose 300 mg",6
same,duration of cutaneous vasomotor reaction,"[4]; subject, single oral dose of 300 mg PZA, face, neck and shoulders with mild rash",about 90 min
same,half-life,"[5]; subject two, 600 mg",5 h
same,concentration at 1 h,"[5]; subject two, 600 mg",10200 ng/mL
same,concentration at 2 h,"[5]; subject two, 600 mg",12000 ng/mL
same,half-life,"[5]; subject, 300 mg",3 h
same,concentration at 1 h,"[5]; subject, 300 mg",6200 ng/mL
same,concentration at 2 h,"[5]; subject, 300 mg",4800 ng/mL
same,onset of cutaneous reaction relative to peak serum concentration,[6]; 300 mg PZA,the onset preceded peak serum PZA concentrations
same,subjects that responded with a cutaneous vasomotor reaction,[6]; 300 mg PZA,7 of 8
same,seriousness of cutaneous vasomotor reactions,"[6]; 300 mg PZA, 8 subjects",None of the cutaneous vasomotor reactions was serious enough to interfere with participation in the study
same,subjects without cutaneous vasomotor reaction,"[6]; 300 mg PZA, 8 subjects",One subject among the 8 had no reaction
same,duration of cutaneous vasomotor reaction (longest),"[6]; 300 mg PZA, in 1 subject",4 h
same,duration of cutaneous vasomotor reaction (shortest),"[6]; 300 mg PZA, in 3 subjects",30 min
same,effect on blush area,[6]; PZA,transiently stimulate
same,"Cutaneous vasomotor response, Score (0-6), Mean","[6]; single 300-mg dose of PZA, mean of 8 male volunteers",3.25

# From patent US6323203A, “Composition and method for treating diabetes” (Beyer; Camille F., priority 2000, dated 2001)
